{"source": "patent US9642922B2", "about": "“Caspase-triggered nano-aggregation probes and methods of use” (The Board of Trustees of the Leland Stanford Junior …, priority 2013, dated 2017)", "key": {"[1]": {"tested_on": "apoptotic cells", "assay": "Two-photon laser confocal microscopy of europium analogue in HeLa cells", "format": "cell-based, human", "details": "same conditions as probe 15 uptake"}, "[2]": {"tested_on": "caspase-3/7 activity", "assay": "CASPASE-GLO 3/7 assay in saline- and 3×DOX-treated tumor lysates", "format": "in vivo, mouse", "details": "3×DOX 8 mg/kg i.v.", "protocol": "HeLa tumor xenografted mice were treated with saline or 3×DOX (8 mg/Kg). After treatment, the mice were sacrificed, and the tumors were resected and lysed with RIPA buffer (1 g tissue/1 ml buffer). The solution was homogenized for 1 min on ice, three times. The lysed solution was kept on ice for another 30 min, and centrifuged at 14,000×g for 30 min at 4° C. The supernatant was collected, and the protein concentration was measured using Bradford assay with BSA as standard. The caspase-3/7 activity in the lysed solution was measured by CASPASE-GLO® 3/7 assay, and normalized to the protein concentration."}, "[3]": {"tested_on": "caspase-3 activity", "assay": "Caspase-3 level in Dox-treated HeLa cells", "format": "cell-based, human", "details": "Dox 2 μM, 24 h", "protocol": "HeLa cells were incubated with different concentrations of doxorubicin (0, 1, 2 and 5 μM) and the cell/Tryp-LE solution was centrifuge at 11,750×g for 5 min, the supernatant was removed and 1 mL/g Riba buffer (Sigma) was added. The cells were left for 15 min on ice and homogenized with a sonicator (Bronson Sonifier 150) and the suspension was analyzed for Caspase-3 activity with a CASPASE-GLO® kit from Promega.\nPET tracer 1 was applied to detect caspase-3 in apoptotic cells in vitro. HeLa cells were incubated with doxorubicin (Dox) (2 μM) for 24 h to induce apoptosis. […] Both Dox-treated and non-treated cells were then incubated with 1 for 4 h."}, "[4]": {"tested_on": "caspase-3 level", "assay": "Caspase-3 level in DOX-treated HeLa tumors", "format": "in vivo, mouse", "details": "0.2 mg DOX intratumoral, 4 days", "protocol": "Mice were injected subcutaneously on the right shoulder with an estimated 1-2 million HeLa cells. The HeLa cells were allowed to establish a tumor xenograft and to grow to the size of 1 cm in diameter. A subset of the mice was treated with intratumoral injections of 0.2 mg (in 20 μL) doxorubicin. Four days later, the animals were killed, the tumors removed and quickly frozen using dry ice. The following day, tumors were cut into small pieces, weighted and 1 mL/g Riba buffer was added. They were kept on ice for 30 min and then homogenized with a sonicator (Bronson Sonifier 150). The lysed tumor solutions were centrifuged at 11,750×g for 15 min at 4° C. The supernatant was analyzed for caspase-3 activity using the CASPASE-GLO® kit (Promega) and for protein concentration using the standard BSA absorption assay."}, "[5]": {"tested_on": "HeLa tumor xenograft", "assay": "Tumor size monitoring in HeLa xenograft chemotherapy model", "format": "in vivo, mouse", "details": "3×DOX 8 mg/kg i.v.", "protocol": "(§1) To establish tumors in 6-week-old female nu/nu mice, 2×10^6 HeLa cells suspended in 50 μL of a 50% v/v mixture of Matrigel in supplemented DMEM (10% FBS, 1% penstrep) were injected subcutaneously in the shoulders of the mouse. Tumors were grown until a single aspect was 0.7 to 0.9 cm (approximately 10-15 days), and then treatment consisting of 8 mg/kg DOX or saline was initiated. Treatments were administered intravenously once every 4 d for a total of three times. Total mouse body weight and tumor size (width and length by caliper) was measured every other day. Tumor volumes were calculated assuming ellipsoid shape with the formula (l×w^2)/2."}, "[6]": {"tested_on": "STS-induced apoptotic HeLa cells", "assay": "Flow cytometry of STS-induced apoptotic HeLa cells labeled with probes", "format": "cell-based, human", "details": "2 μM probe, compared with C-SNAF", "protocol": "Approximately 10^5 HeLa cells in 1 mL DMEM medium were seeded onto 12-well plates. […] For the inhibitor blocking experiment, the STS-treated cells were first incubated with the caspase inhibitor Z-VAD-fmk (50 μM, R&D Systems) for 30 min, and then 2 μM C-SNAF was added. All cells incubations were 24 h, followed by staining with FLICA (FAM) after trypsinization. After washing with PBS (1×) three times, the cell pellets were resuspended in 300 μL PBS and applied for flow cytometry analysis using the FITC and Cy5.5 channels. The cell number for each flow cytometry analysis was approximately 5000 to 10000, and the data was processed using FlowJo software."}, "[7]": {"molecular_target": "T1, caspase-3 (Homo sapiens, UniProt P42574)", "T1 sequence (P42574 29-175 limits assumed)": "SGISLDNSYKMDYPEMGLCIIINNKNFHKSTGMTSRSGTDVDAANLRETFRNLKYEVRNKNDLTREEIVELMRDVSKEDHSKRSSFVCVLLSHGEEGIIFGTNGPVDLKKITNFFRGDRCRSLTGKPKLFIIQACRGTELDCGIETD", "T1 sequence (P42574 176-277 limits assumed)": "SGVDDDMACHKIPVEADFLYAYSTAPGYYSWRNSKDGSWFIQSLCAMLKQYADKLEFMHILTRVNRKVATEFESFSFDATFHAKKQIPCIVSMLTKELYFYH", "assay": "HPLC assay of caspase-3-triggered macrocyclization of C-SNAF", "format": "biochemical", "parameters": "purchased Sigma; host or cells: E. coli", "details": "same conditions as C-SNAF; D-ctrl after 24 h", "protocol": "The progression of caspase-3-triggered macrocyclization of C-SNAF to form C-SNAF-cycl in solution was monitored using high-performance liquid chromatography (HPLC) following incubation of the probe (25 μM) with recombinant human caspase-3 (4.9×10^−[…]).\nCaspase (human, recombinant from E. coli) assays were performed for caspase-3 (4.9×10^−3 U; 7.35×10^−4 mg, Sigma), −7 (18.3 U; 7.35×10^−4 mg, Calbiochem), and −9 (0.3 U; 7.35×10^−4 mg, Calbiochem). All caspase assays were conducted in caspase buffer with 50 mM HEPES, 100 mM NaCl, 1 mM EDTA, 10 mM TCEP, 10% glycerol, and 0.1% CHAPS at pH 7.4. Cathepsin B (human liver; 0.27 U; 7.35×10^−4 mg, Calbiochem) and Legumain (human, recombinant from mouse myeloma cell line; >250 pmol/min/μg; 7.35×10^−4 mg, R&D Systems) were conducted in reaction buffer with 50 mM sodium acetate, 50 mM NaCl, 0.5 mM EDTA and 10 mM TCEP at pH 5.5. C-SNAF was diluted in the respective enzyme reaction buffer (25 μM, 1 mL) and remained at room temperature for 10 min, to which was then added the respective enzymes. Reactions were performed at 37° C., and monitored by HPLC hourly. The percentage conversion of the reaction was calculated based on the percentage of peak area of C-SNAF-cycl in the HPLC trace at 675 nm UV detection, which indicated the efficacy of enzyme cleavage of C-SNAF."}, "[8]": {"details": "mouse, in vivo, iv"}, "[9]": {"tested_on": "subcutaneous HeLa tumors", "assay": "In vivo fluorescence imaging of DOX-treated HeLa tumor-bearing mice", "parameters": "species or system mouse", "protocol": "C-SNAF or either of the control probes (5 nmol) was administered intravenously to tumor-bearing mice and whole animal fluorescence was longitudinally monitored using a Maestro fluorescence imager.\nas §1\nTwo days following the final treatment, 5 nmol probe in saline was injected intravenously and fluorescence imaging began immediately on a Maestro hyperspectral fluorescent imaging system (PerkinElmer, Mass., USA) using a 635±25 nm excitation filter and a 675 nm long-pass emission filter, with images acquired from 670 to 900 nm. Tissue autofluorescence and Cy5.5 fluorescence were deconvolved, and tumor fluorescence intensity was quantified by region of interest measurement using Nuance v.3.0.1.2 software (Perkin Elmer, Mass., USA)."}, "[10]": {"tested_on": "apoptotic HeLa cells", "assay": "Epifluorescence microscopy of apoptotic HeLa cells labeled with probes", "format": "cell-based, human", "details": "microscopy, 2 μM probe", "protocol": "After removal of the medium, the cells were incubated with C-SNAF, L-ctrl, or D-ctrl at 2 μM for 24 h. Some cells were first incubated with caspase inhibitor (Z-VAD-fmk, 50 μM) for 30 min, followed by incubating with 2 μM C-SNAF for 24 h. The cells were carefully washed with PBS (1×) three times, and stained with Hoechst 33342 (2 μM) at 37° C. for 30 min. After rinses with PBS (1×) several times, the medium was replaced and the fluorescence images were acquired with DAPI and Cy5.5 filters. The images were processed using the standard CRi Nuance software, analyzed using Image J software package (NIH), and presented at the same intensity scale for comparison.\nHeLa cells in #1.5 borosilicate 8-well chambered coverslips (Nunc) were either incubated with C-SNAF (2 μM) alone or co-incubated with DOX (1, 2, and 5 μM) and 2 μM C-SNAF, 2 μM C-SNAF together with caspase inhibitor (Z-VAD-fmk, 50 μM), or control probes D-ctrl and L-ctrl at 2 μM for 24 h. Then the medium was removed, the cells were carefully washed with PBS (1×) three times, and stained with nuclear binding probe Hoechst 33342 (2 μM) at 37° C. for 30 min. After several rinses with PBS (1×), the medium was replaced and the fluorescence images were acquired with DAPI and […] filters."}}, "note": "Numbered stars: 1 amine (or outer) side, 2 acyl side, 3 side chain; on linkers, the order of the positions; unused ones are H or OH. Square brackets hold non-standard residues; d marks the D form. Peptide text beside a SMILES is read from it. * marks the point of attachment. DOTA = O=C(O)CN1CCN(CC(=O)O)CCN(CC(=O)*)CCN(CC(=O)O)CC1; X1 = O=C(C1CSC(c2nc3ccc(N[*:1])cc3s2)=N1)[*:2]; X2 = N#Cc1ccc2cc(OCCCN*)ccc2n1; SEt = CCS*"}
{"molecule": "CCSSCC(NC(=O)C(CC(=O)O)NC(=O)C(NC(=O)C(CCC(=O)O)NC(=O)C(CC(=O)O)NC(C)=O)C(C)C)C(=O)NC(CCCCNC(=O)CN1CCN(CC(=O)[O-])CCN(CC(=O)[O-])CCN(CC(=O)[O-])CC1)C(=O)Nc1ccc2nc(C3=NC(C(=O)NCCCOc4ccc5nc(C#N)ccc5c4)CS3)sc2c1.[Eu+3]", "note": "(stereo not drawn) [1-Eu^3+ (16)] (Ac-DEVDC(SEt)K(DOTA)[X1]-X2; configuration not given here)", "values": [{"measurement": "fluorescent signal in apoptotic cells", "setting": "[1]", "result": "strong fluorescent signal in apoptotic cells"}]}
{"molecule": "COc1cccc2c1C(=O)c1c(O)c3c(c(O)c1C2=O)C[C@@](O)(C(=O)CO)C[C@@H]3O[C@H]1C[C@H](N)[C@H](O)[C@H](C)O1", "note": "[DOX, doxorubicin]", "values": [{"measurement": "increase in caspase-3/7 activity in tumor lysates versus saline", "setting": "[2]", "result": "approximately 2 fold"}, {"measurement": "caspase-3 activity of lysates of treated versus non-treated cells", "setting": "[3]", "result": 9.5, "unit": "fold"}, {"measurement": "increase of caspase-3 level in treated tumors", "setting": "[4]", "result": 1.9, "unit": "fold"}, {"measurement": "tumor growth rate relative to saline", "setting": "[5]", "result": "significant decrease in tumor growth rates"}]}
{"molecule": "CC[N+]1=C(C=CC=CC=C2N(CCCCCC(=O)NCCCCC(NC(=O)C(CSC)NC(=O)C(CC(=O)O)NC(=O)C(NC(=O)C(CCC(=O)O)NC(=O)C(CC(=O)O)NC(C)=O)C(C)C)C(=O)Nc3ccc4nc(C5=NC(C(=O)NCCCOc6ccc7ncccc7c6)CS5)sc4c3)c3ccc4c(S(=O)(=O)O)cc(S(=O)(=O)O)cc4c3C2(C)C)C(C)(C)c2c1ccc1c(S(=O)(=O)O)cc(S(=O)(=O)[O-])cc21", "note": "[L-ctrl]", "values": [{"measurement": "fluorescent intensity of apoptotic cells incubated with control probes", "setting": "[6]", "result": "much lower fluorescent intensity"}, {"measurement": "products observed after incubation with caspase-3", "setting": "[7]", "result": "only the caspase-3-mediated DEVD-cleavage hydrolysis product"}, {"measurement": "blood half-life", "setting": "[8]", "result": "30 ± 16.8", "unit": "min"}, {"measurement": "correlation (r) of maximum tumor fluorescence with maximum tumor size change", "setting": "[9]; 3×DOX-treated mice, 1 h after probe", "result": "no significant correlation"}, {"measurement": "average signal enhancement between DOX- and saline-treated tumors", "setting": "[9]; 4 h after probe administration", "result": 0.24, "unit": "%"}, {"measurement": "tumor fluorescence lower than that of C-SNAF", "setting": "[9]; DOX-treated mice, 1 h", "result": 18, "unit": "%"}, {"measurement": "fluorescence of apoptotic cells compared to C-SNAF", "setting": "[10]", "result": "relatively weaker fluorescence"}]}
